In EP0252983B1, “SALTS OF N-(VINYLOXIETHYL)DITHIOCARBAMIC ACID, METHOD OF OBTAINING THEREOF AND […] ON THEM” (priority 1985, dated 1987):

Experiments:
Pythium ultimum = assay: Soil fungicide test (fungal discs in treated soil); type: cell-based; set-up: key: Das Vorhandensein (+); das Fehlen (-) des wachsenden Myzels um die Scheibe herum; details: 160 mg/kg Boden
Experimental: (§1) Eine 50 g schwere Bodenprobe bringt man in ein Glasgefäß ein, sterilisiert innerhalb von 2 Stunden unter einem Druck von 2 atm, gibt dann dem Boden das Präparat als wäßrige Lösung ausgehend von 160 mg/kg zu, wonach in den Boden Scheiben mit Kulturen folgender Pilze Fusarium oxysporum, Verticillium dahliae, Rhizoctonia solani, Pythium ultimum untergebracht werden.
(§2) Nach 24 und 48 Stunden werden die Scheiben in fließendem Wasser, dann in sterilem Wasser gewaschen, auf sterilem Filterpapier getrocknet und auf eine reine Agarplatte gelegt. Das Vorhandensein (+) oder das Fehlen (-) des wachsenden Myzels um die Scheibe herum wies auf die Wirksamkeit des Präparats. Als Vergleichsmuster diente dabei Karbathion. Die Prüfergebnisse sind in der Tabelle 5 dargestellt.

Verticillium dahliae [1] = assay: Soil fungicide test (fungal discs in treated soil); type: cell-based; set-up: key: Das Vorhandensein (+); das Fehlen (-) des wachsenden Myzels um die Scheibe herum; details: 160 mg/kg Boden
Experimental: as §1, §2

Rhizoctonia solani = assay: Soil fungicide test (fungal discs in treated soil); type: cell-based; set-up: key: Das Vorhandensein (+); das Fehlen (-) des wachsenden Myzels um die Scheibe herum; details: 160 mg/kg Boden
Experimental: as §1, §2

Fusarium oxysporum = assay: Soil fungicide test (fungal discs in treated soil); type: cell-based; set-up: key: Das Vorhandensein (+); das Fehlen (-) des wachsenden Myzels um die Scheibe herum; details: 160 mg/kg Boden
Experimental: as §1, §2

[2] = Solubility in water (descriptive); type: physicochemical
Psoroptes cuniculi = assay: Acaricidal activity on isolated mites; type: in vivo
Experimental: Die akarizide Aktivität der Stoffe wird an isolierten Milben Psoroptes cuniculi als Erreger der Psoroptesräude bei Kaninchen geprüft. Von frischen Verkrustungen von Kaninchen mit Psoroptesräude, werden zu diesem Zweck 50 Milbenexemplare (Larven, Nymphen, Imago) gewählt und in Petri-Schalen auf ein Filterpapierblatt übertragen. Dann bringt man auf Milben und die ganze Blattoberfläche 1,5 ml zu prüfende wäßrige Stofflösung in destilliertem Wasser auf. Die Schale wird mit Deckel verschlossen und in einen Thermostat bei 30 °C und Feuchtegehalt von 90 % angeordnet. Der Wirkstoff wird als wäßrige Lösung mit einer zwischen 0,0039 und 4 % liegenden Konzentration genommen. Als Vergleichsmuster dient gleichzeitig eine wäßrige Lösung von Chlorophos. Milben werden im Kontrollversuch (Kontrolle auf Lebensfähigkeit)mit 1,5 ml physiologischer Lösung behandelt und in einen anderen Thermostat unter gleichen Temperatur- und Feuchtigkeitsbedingungen aufgestellt.
Nach 1, 2, 4, 6 Stunden und alle 24 Stunden betrachtet man die Milben im Mikroskop und zählt die toten Milben. Aufgrund der Milbenvernichtung durch einen 24-stündigen Kontakt mit dem Wirkstoff ermittelt man die LK-50 Werte. Die Versuche werden 5mal wiederholt. Arithmetische Mittelwerte gibt Tabelle 14 an.

Botrytis cinerea = assay: Mycelial growth inhibition on agar (contact activity); type: cell-based; details: 120 h, Kartoffel-Glukose-Nährmedium, read-out: Myzelhemmung in %
How it was run: (§3)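 Compound dissolved in water and mixed into potato-glucose agar poured into dishes. Mycelium stab-inoculated after 24 h, then incubated 5 days at 24–26 °C. Colony diameters measured on day 5, and % mycelial growth inhibition calculated by Abbott's formula.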

Verticillium dahliae [3] = assay: as above; type: cell-based; details: 120 h, Kartoffel-Glukose-Nährmedium, read-out: Myzelhemmung in %
How it was run: as §3

Fusarium sambucinum = assay: as above; type: cell-based; details: Fusarium sambucinum, 120 h, Kartoffel-Glukose-Nährmedium, read-out: Myzelhemmung in %
Venturia inaegualis = assay: as above; type: cell-based; details: 120 h, Kartoffel-Glukose-Nährmedium, read-out: Myzelhemmung in %
How it was run: as §3

Fusarium moniliforme = assay: as above; type: cell-based; details: Fusarium verticillioides, 120 h, Kartoffel-Glukose-Nährmedium, read-out: Myzelhemmung in %
Acremonium cowum = assay: as above; type: cell-based; details: 120 h, Würzeagar, read-out: Myzelhemmung in %
[4] = test system: Cladosporium cladosporioides; assay: as above; type: cell-based; details: Cladosporium cladosporioides, 120 h; Präparatkonzentration 0,006 %; Würzeagar; read-out: Myzelhemmung in %
Bacillus = assay: Bactericidal activity on agar (concentration of complete growth inhibition); type: cell-based; details: % bezogen auf den Wirkstoff; am 5. Tag; listed as Kaliumsalz
Escherichia = assay: as above; type: cell-based; details: % bezogen auf den Wirkstoff; am 5. Tag; listed as Kaliumsalz
Pseudomonas = assay: as above; type: cell-based; details: % bezogen auf den Wirkstoff; am 5. Tag; listed as Kaliumsalz
Micrococcus = assay: as above; type: cell-based; details: % bezogen auf den Wirkstoff; am 5. Tag; listed as Kaliumsalz
[5] = Storage stability (descriptive); type: physicochemical

Compound: C=COCCNC(=S)S [Kalium-N-(vinyloxyäthyl)dithiocarbamat]
- wachsendes Myzel um die Scheibe (Pythium ultimum; Haltedauer 24 Stunden): -
- wachsendes Myzel um die Scheibe (Pythium ultimum; Haltedauer 48 Stunden): -
- wachsendes Myzel um die Scheibe (Verticillium dahliae [1]; Haltedauer 24 Stunden): -
- wachsendes Myzel um die Scheibe (Verticillium dahliae [1]; Haltedauer 48 Stunden): -
- wachsendes Myzel um die Scheibe (Rhizoctonia solani; Haltedauer 24 Stunden): -
- wachsendes Myzel um die Scheibe (Rhizoctonia solani; Haltedauer 48 Stunden): -
- wachsendes Myzel um die Scheibe (Fusarium oxysporum; Haltedauer 24 Stunden): -
- wachsendes Myzel um die Scheibe (Fusarium oxysporum; Haltedauer 48 Stunden): -
- Löslichkeit in Wasser [2]: gut
- LK-50 % (Psoroptes cuniculi; 24-stündiger Kontakt mit dem Wirkstoff): 0,00208%
- Vernichtung von 100 % der Milben nach Stunden (Psoroptes cuniculi; Konzentration 0,0039 %): 48 Stunden
- Vernichtung von 100 % der Milben nach Stunden (Psoroptes cuniculi; Konzentration 0,0078 %): 24 Stunden
- Vernichtung von 100 % der Milben nach Stunden (Psoroptes cuniculi; Konzentration 0,0625 %): 6 Stunden
- Vernichtung von 100 % der Milben nach Stunden (Psoroptes cuniculi; Konzentration 0,125 bis 0,5 %): 4 Stunden
- selektive Toxizität gegen Räudemilben, dem Chlorophos überlegen (Psoroptes cuniculi; gegenüber Chlorophos): ~400 mal
- inhibition of growth at 0.01 % (Botrytis cinerea; Wirkstoffkonzentration 0,01 %): 100%
- inhibition of growth at 0.003 % (Botrytis cinerea; Wirkstoffkonzentration 0,003 %): 100%
- inhibition of growth at 0.01 % (Verticillium dahliae [3]; Wirkstoffkonzentration 0,01 %): 100%
- inhibition of growth at 0.003 % (Verticillium dahliae [3]; Wirkstoffkonzentration 0,003 %): 100%
- inhibition of growth at 0.01 % (Fusarium sambucinum; Wirkstoffkonzentration 0,01 %): 100%
- inhibition of growth at 0.003 % (Fusarium sambucinum; Wirkstoffkonzentration 0,003 %): 100%
- inhibition of growth at 0.01 % (Venturia inaegualis; Wirkstoffkonzentration 0,01 %): 100%
- inhibition of growth at 0.003 % (Venturia inaegualis; Wirkstoffkonzentration 0,003 %): 100%
- inhibition of growth at 0.01 % (Fusarium moniliforme; Wirkstoffkonzentration 0,01 %): 100%
- inhibition of growth at 0.003 % (Fusarium moniliforme; Wirkstoffkonzentration 0,003 %): 100%
- inhibition of growth at 0.003 % (Acremonium cowum; Präparatkonzentration 0,003 %): 100%
- inhibition of growth at 0.006 % (Acremonium cowum; Präparatkonzentration 0,006 %): 100%
- inhibition of growth at 0.006 % [4]: 100%
- Konzentrationen, welche das Bakterienwachstum völlig (100 %) hemmen (Bacillus): 0,05%
- Konzentrationen, welche das Bakterienwachstum völlig (100 %) hemmen (Escherichia): 0,05%
- Konzentrationen, welche das Bakterienwachstum völlig (100 %) hemmen (Pseudomonas): 0,05%
- Konzentrationen, welche das Bakterienwachstum völlig (100 %) hemmen (Micrococcus): 0,05%
- Lagerbeständigkeit [5]: lagerbeständig
